Measured values taken from patent US8367727B2, “Method of using abscisic acid to treat diseases and disorders” (priority 2006, dated 2013).

System: MCP-1 promoter
Assay: MCP-1 promoter luciferase reporter in 3T3-L1 pre-adipocytes
Format: cell-based
Details: GW9662 30 μM
Method: 3T3-L1 cells (American Type Culture Collection, Manassas, Va.) were grown in 24-well plates in DMEM high glucose medium (Invitrogen, Carlsbad, Calif.) containing 10% fetal bovine serum (FBS) until 60-70% confluence. Before transfection, the medium was changed to 1% FBS. The cells cultured in 24-well plates were co-transfected with 0.8 μg plasmid DNA and 1 ng of pRL reporter control plasmid per well using F-1 transfection reagents (Targeting Systems, Santee, Calif.) according to the manufacturer's protocol. Transfection efficiencies were determined by cotransfecting the cells with a pcDNA™ 3.1/His/lacZ control vector at 24 h. The transfected cells were then treated with either a racemic ABA mixture (12.5 μM; Sigma) or rosiglitazone (1 μM; Cayman Chemicals, Ann Arbor, Mich.) for 24 hours. Designated wells were also treated with the PPAR γ antagonist GW9662 (30 μM; Cayman Chemicals). Transfected cells were harvested in reporter lysis reagent. Luciferase activity, normalized to pRL activity in the cell extracts was determined by using the dual luciferase reporter assay system (Promega, Madison, Wis.) in a TD-20/20 Single-Tube Luminometer (Turner Biosystems, Sunnyvale, Calif.). Relative luciferase activity (RLA) was calculated as a ratio of the chemiluminescence 10 seconds after the Luciferase Assay Reagent II (Promega) was added over the chemiluminescence 10 seconds after the Stop&Glo Reagent (Promega).
To further examine the effect of ABA on MCP-1 transactivation, 3T3-L1 preadipocytes were transfected with a MCP-1 promoter luciferase reporter construct and also cotransfected with a pCMX PPAR γ expression plasmid to increase endogenous PPAR γ activity. Cells were then treated with ABA (12.5 μM), rosiglitazone (1 μM), the PPAR γ antagonist GW9662 (30 μM), or a combination of agonist and inhibitor.

With `O=C(Nc1ccccc1)c1cc([N+](=O)[O-])ccc1Cl` [GW9662, reference compound] the “inhibition of the effects of ABA and rosiglitazone on MCP-1 promoter activity” value was “inhibited”.
